Data taken from patent US8952024B2, “Herbicidal pyrimidone derivatives” (E I du Pont de Nemours and Company, priority 2009, dated 2015).

Legend:
Format in all cases: in vivo
[1] = system: bermudagrass (Cynodon dactylon); assay: Test B pre-/postemergence plant response
Method in brief: (§1)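 Pre-em in loam/sand; post-em at 1–4 leaf (2–18 cm) in peat mix. Solvent + surfactant formulation. Greenhouse 13–15 d; visual % control vs untreated, 0–100.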

[2] = system: pigweed (Amaranthus retroflexus); assay: Test B pre-/postemergence plant response
Method in brief: as §1

[3] = system: wheat (Triticum aestivum); assay: Test B pre-/postemergence plant response
Method in brief: as §1

[4] = system: sunflower (common oilseed sunflower, Helianthus annuus); assay: Test B pre-/postemergence plant response; conditions: Preemergence
Method in brief: as §1

[5] = system: Italian ryegrass (Lolium multiflorum); assay: Test B pre-/postemergence plant response
Method in brief: as §1

[6] = system: nightshade (eastern black nightshade, Solanum ptycanthum); assay: Test B pre-/postemergence plant response; conditions: Preemergence
Method in brief: as §1

[7] = system: lambsquarters (Chenopodium album); assay: Test B pre-/postemergence plant response
Method in brief: as §1

[8] = system: ragweed (common ragweed, Ambrosia elatior); assay: Test B pre-/postemergence plant response
Method in brief: as §1

[9] = system: galium (catchweed bedstraw, Galium aparine); assay: Test B pre-/postemergence plant response; conditions: Preemergence
Method in brief: as §1

[10] = system: canarygrass (Phalaris minor); assay: Test B postemergence plant response
Method in brief: (§2)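 Plants at the 1- to 4-leaf stage (2 to 18 cm tall), grown in pots of peat moss/vermiculite medium with wetting agent and starter nutrients, received postemergence applications of test chemicals. After 13 to 15 days in a greenhouse, injury was rated visually against untreated controls on a 0 (no effect) to 100 (complete control) scale.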

[11] = system: winter barley (Hordeum vulgare); assay: Test B postemergence plant response
Method in brief: as §2

[12] = system: chickweed (Stellaria media); assay: Test B postemergence plant response
Method in brief: as §2

[13] = system: windgrass (Apera spica-venti); assay: Test B postemergence plant response
Method in brief: as §2

[14] = 31 g ai/ha, postemergence, scale 0 to 100, 0 is no effect, 100 is complete control
[15] = 250 g ai/ha, Preemergence, 0 to 100 scale
[16] = Postemergence, 62 g ai/ha, scale 0 (no effect) to 100 (complete control), 13 to 15 days
[17] = Postemergence, 125 g ai/ha, visual rating after 13 to 15 days, scale 0 (no effect) to 100 (complete control)
[18] = Postemergence, 250 g ai/ha, scale 0 to 100 (0 no effect, 100 complete control)
[19] = Preemergence, 31 g ai/ha, scale 0 to 100 (0 no effect, 100 complete control)
[20] = Preemergence, 62 g ai/ha, scale 0 to 100, 0 no effect, 100 complete control
[21] = Preemergence, 125 g ai/ha, scale 0 to 100, 0 no effect, 100 complete control
[22] = 31 g ai/ha, scale 0 to 100 (0 no effect, 100 complete control)
[23] = 62 g ai/ha, scale 0 to 100, 0 no effect, 100 complete control
[24] = 125 g ai/ha, scale 0 to 100, 0 no effect, 100 complete control

O=C1CCCC(O)=C1C(=O)c1cnc(-c2cccs2)n(-c2ccccc2)c1=O [Compound 66]
Plant response rating, Bermudagrass [1, 14]: 70
Plant response rating, Bermudagrass [1, 15]: 98
Plant response rating, Bermudagrass [1, 16]: 70
Plant response rating, Bermudagrass [1, 17]: 95
Plant response rating, Bermudagrass [1, 18]: 95
Plant response rating, Bermudagrass [1, 19]: 20
Plant response rating, Bermudagrass [1, 20]: 80
Plant response rating, Bermudagrass [1, 21]: 98
Plant response rating, Pigweed [2, 14]: 98
Plant response rating, Pigweed [2, 16]: 98
Plant response rating, Pigweed [2, 17]: 100
Plant response rating, Pigweed [2, 18]: 100
Plant response rating, Pigweed [2, 19]: 98
Plant response rating, Pigweed [2, 20]: 98
Plant response rating, Pigweed [2, 21]: 98
Plant response rating, Wheat [3, 14]: 0
Plant response rating, Wheat [3, 17]: 0
Plant response rating, Wheat [3, 18]: 0
Plant response rating, Wheat [3, 19]: 0
Plant response rating, Wheat [3, 20]: 0
Plant response rating, Wheat [3, 21]: 0
Plant response rating, Sunflower [4, 22]: 0
Plant response rating, Sunflower [4, 23]: 0
Plant response rating, Sunflower [4, 24]: 0
Plant response rating, Ryegrass, Italian [5, 14]: 0
Plant response rating, Ryegrass, Italian [5, 16]: 0
Plant response rating, Ryegrass, Italian [5, 17]: 5
Plant response rating, Ryegrass, Italian [5, 18]: 10
Plant response rating, Ryegrass, Italian [5, 19]: 0
Plant response rating, Ryegrass, Italian [5, 20]: 0
Plant response rating, Ryegrass, Italian [5, 21]: 0
Plant response rating, Nightshade [6, 22]: 80
Plant response rating, Nightshade [6, 23]: 95
Plant response rating, Nightshade [6, 24]: 98
Plant response rating, Lambsquarters [7, 14]: 95
Plant response rating, Lambsquarters [7, 15]: 100
Plant response rating, Lambsquarters [7, 16]: 95
Plant response rating, Lambsquarters [7, 17]: 95
Plant response rating, Lambsquarters [7, 18]: 100
Plant response rating, Lambsquarters [7, 19]: 98
Plant response rating, Lambsquarters [7, 20]: 98
Plant response rating, Lambsquarters [7, 21]: 98
Plant response rating, Ragweed [8, 14]: 0
Plant response rating, Ragweed [8, 16]: 10
Plant response rating, Ragweed [8, 17]: 25
Plant response rating, Ragweed [8, 18]: 60
Plant response rating, Ragweed [8, 19]: 0
Plant response rating, Ragweed [8, 20]: 0
Plant response rating, Ragweed [8, 21]: 45
Plant response rating, Galium ([9]; 250 g ai/ha, 0 to 100 scale): 0
Plant response rating, Galium [9, 22]: 0
Plant response rating, Galium [9, 23]: 0
Plant response rating, Galium [9, 24]: 0
Plant response rating, Canarygrass [10, 14]: 0
Plant response rating, Canarygrass [10, 16]: 0
Plant response rating, Canarygrass [10, 17]: 0
Plant response rating, Canarygrass [10, 18]: 0
Plant response rating, Barley [11, 14]: 0
Plant response rating, Barley [11, 16]: 0
Plant response rating, Barley [11, 17]: 0
Plant response rating, Barley [11, 18]: 0
Plant response rating, Chickweed [12, 14]: 80
Plant response rating, Chickweed [12, 16]: 85
Plant response rating, Chickweed [12, 17]: 95
Plant response rating, Chickweed [12, 18]: 98
Plant response rating, Windgrass [13, 14]: 60
Plant response rating, Windgrass [13, 16]: 60
Plant response rating, Windgrass [13, 17]: 70
Plant response rating, Windgrass [13, 18]: 80
